± gives the uncertainty stated by the source.
Assay: xn = mol fraction of the nth substance listed

CCC(C)(C)O + O
298.15 K, 101 kPa
Settings	viscosity [mPa·s]
x2 = 0.0042	3.548 ± 0.033
x2 = 0.0429	3.711 ± 0.036
x2 = 0.0863	3.875 ± 0.04
x2 = 0.124	3.987 ± 0.043
x2 = 0.1654	4.122 ± 0.047
x2 = 0.197	4.218 ± 0.05
x2 = 0.214	4.269 ± 0.051
x2 = 0.2583	4.388 ± 0.056
x2 = 0.2775	4.443 ± 0.058

Cn1cc[n+](CCC[n+]2ccccc2)c1.[Br-].[Br-] + O
viscosity [mPa·s], 101 kPa
Settings	293.15 K	298.15 K	303.15 K	308.15 K	313.15 K
x1 = 0.0003405	1.016 ± 0.022	0.905 ± 0.019	0.811 ± 0.017	0.734 ± 0.016	0.667 ± 0.014
x1 = 0.0004322	1.019 ± 0.022	0.907 ± 0.019	0.814 ± 0.017	0.737 ± 0.016	0.669 ± 0.014
x1 = 0.0005421	1.021 ± 0.022	0.909 ± 0.019	0.816 ± 0.017	0.739 ± 0.016	0.672 ± 0.014
x1 = 0.000689	1.023 ± 0.022	0.911 ± 0.019	0.819 ± 0.017	0.742 ± 0.016	0.675 ± 0.014
x1 = 0.0008251	1.032 ± 0.022	0.918 ± 0.02	0.827 ± 0.018	0.744 ± 0.016	0.678 ± 0.014
x1 = 0.0009589	1.035 ± 0.022	0.921 ± 0.02	0.829 ± 0.018	0.747 ± 0.016	0.681 ± 0.015
x1 = 0.001109	1.038 ± 0.022	0.924 ± 0.02	0.832 ± 0.018	0.749 ± 0.016	0.684 ± 0.015
x1 = 0.00128	1.041 ± 0.022	0.927 ± 0.02	0.835 ± 0.018	0.752 ± 0.016	0.687 ± 0.015
x1 = 0.001457	1.043 ± 0.022	0.93 ± 0.02	0.837 ± 0.018	0.755 ± 0.016	0.689 ± 0.015
x1 = 0.001664	1.047 ± 0.022	0.933 ± 0.02	0.839 ± 0.018	0.758 ± 0.016	0.691 ± 0.015
x1 = 0.001904	1.05 ± 0.022	0.936 ± 0.02	0.841 ± 0.018	0.761 ± 0.016	0.693 ± 0.015
x1 = 0.002122	1.053 ± 0.022	0.939 ± 0.02	0.843 ± 0.018	0.763 ± 0.016	0.696 ± 0.015
x1 = 0.002357	1.057 ± 0.022	0.942 ± 0.02	0.846 ± 0.018	0.766 ± 0.016	0.699 ± 0.015

Cn1ccnc1 + O
viscosity [mPa·s], 100 kPa
Settings	298.15 K	308.15 K	318.15 K
x1 = 0.0499	1.322 ± 0.13	1.024 ± 0.1	0.821 ± 0.083
x1 = 0.0997	1.733 ± 0.17	1.313 ± 0.13	1.031 ± 0.1
x1 = 0.1496	2.155 ± 0.22	1.611 ± 0.16	1.239 ± 0.12
x1 = 0.1996	2.583 ± 0.26	1.893 ± 0.19	1.451 ± 0.15
x1 = 0.2991	3.413 ± 0.34	2.423 ± 0.24	1.806 ± 0.18
x1 = 0.3993	3.978 ± 0.4	2.789 ± 0.28	2.034 ± 0.21
x1 = 0.499	4.032 ± 0.41	2.846 ± 0.29	2.094 ± 0.21
x1 = 0.5989	3.653 ± 0.37	2.644 ± 0.27	1.983 ± 0.2
x1 = 0.6996	3.103 ± 0.31	2.278 ± 0.23	1.772 ± 0.18
x1 = 0.7996	2.561 ± 0.26	1.974 ± 0.2	1.579 ± 0.16
x1 = 0.8493	2.337 ± 0.23	1.829 ± 0.18	1.491 ± 0.15
x1 = 0.8988	2.136 ± 0.21	1.673 ± 0.17	1.388 ± 0.14
x1 = 0.9496	1.96 ± 0.2	1.557 ± 0.16	1.309 ± 0.13

O=BOB([O-])OB([O-])OB=O.[Na+].[Na+] + O
viscosity [mPa·s], 101 kPa
Settings	x1 = 0.0009	x1 = 0.0018	x1 = 0.0022	x1 = 0.0027
298.15 K	0.9284 ± 0.01	0.9681 ± 0.01	0.9845 ± 0.01	1.008 ± 0.01
308.15 K	0.7526 ± 0.0084	0.7823 ± 0.0086	0.7945 ± 0.0087	0.8122 ± 0.0088
318.15 K	0.6216 ± 0.0074	0.6508 ± 0.0076	0.6626 ± 0.0076	0.6806 ± 0.0077

O=C[C@@H](O)[C@@H](O)[C@H](O)[C@H](O)CO + O
viscosity [mPa·s], 101 kPa
Settings	293.15 K	303.15 K	308.15 K	313.15 K
x1 = 0.0026	1.052 ± 0.024	0.8259 ± 0.019	–	0.6702 ± 0.015
x1 = 0.005	1.116 ± 0.025	0.8625 ± 0.02	0.7717 ± 0.018	0.6965 ± 0.016

OCCN1CCOCC1 + O
101 kPa
Settings	viscosity [mPa·s]
303.15 K, x1 = 0.8238	30.25 ± 2
313.15 K, x1 = 0.1126	13.55 ± 0.96

CN(C)c1ccccc1 + O=C1CCCCC1
viscosity [mPa·s], 101 kPa
Settings	303.15 K	308.15 K
x1 = 0.0699	1.724 ± 0.061	1.569 ± 0.056
x1 = 0.1269	1.658 ± 0.059	1.502 ± 0.054
x1 = 0.1906	1.587 ± 0.056	1.432 ± 0.051
x1 = 0.2652	1.512 ± 0.054	1.353 ± 0.049
x1 = 0.3251	1.457 ± 0.052	1.299 ± 0.047
x1 = 0.4012	1.395 ± 0.05	1.245 ± 0.045
x1 = 0.4852	1.336 ± 0.048	1.195 ± 0.043
x1 = 0.5602	1.292 ± 0.047	1.161 ± 0.042
x1 = 0.6421	1.254 ± 0.045	1.136 ± 0.041
x1 = 0.7014	1.231 ± 0.045	1.124 ± 0.041
x1 = 0.7745	1.209 ± 0.044	1.114 ± 0.041
x1 = 0.8512	1.192 ± 0.043	1.113 ± 0.041
x1 = 0.9212	1.18 ± 0.043	1.112 ± 0.041

CN(C)c1ccccc1 + O=S1(=O)CCCC1
viscosity [mPa·s], 101 kPa
Settings	x1 = 0.1056	x1 = 0.2173	x1 = 0.2989	x1 = 0.4055	x1 = 0.5001	x1 = 0.6087	x1 = 0.6965	x1 = 0.798	x1 = 0.9131
303.15 K	7.8 ± 0.16	5.97 ± 0.13	4.93 ± 0.1	3.86 ± 0.08	3.12 ± 0.07	2.47 ± 0.05	2.06 ± 0.04	1.68 ± 0.04	1.36 ± 0.03
308.15 K	6.92 ± 0.15	5.33 ± 0.11	4.44 ± 0.09	3.51 ± 0.07	2.85 ± 0.06	2.26 ± 0.05	1.89 ± 0.04	1.55 ± 0.03	1.26 ± 0.03
313.15 K	6.18 ± 0.13	4.79 ± 0.1	4.01 ± 0.09	3.19 ± 0.07	2.61 ± 0.06	2.08 ± 0.04	1.74 ± 0.04	1.43 ± 0.03	1.17 ± 0.03

CN(C)c1ccccc1 + O=[N+]([O-])c1ccccc1
298.15 K, 101 kPa
Settings	viscosity [mPa·s]
x2 = 0.1239	1.337 ± 0.024
x2 = 0.2063	1.355 ± 0.026
x2 = 0.5628	1.488 ± 0.033
x2 = 0.6512	1.565 ± 0.036
x2 = 0.8325	1.702 ± 0.042
x2 = 0.9168	1.766 ± 0.045

CCCC[P+](CC)(CC)CC.N#Cc1ccc[n-]1 + OCC(O)CO
100 kPa
Settings	viscosity [mPa·s]
293.15 K, x1 = 0.259	933 ± 140
293.15 K, x1 = 0.34	737 ± 110
298.15 K, x1 = 0.004	876 ± 130
298.15 K, x1 = 0.018	953 ± 140
298.15 K, x1 = 0.129	932 ± 140
298.15 K, x1 = 0.187	768 ± 120
303.15 K, x1 = 0.058	695 ± 100
303.15 K, x1 = 0.08	692 ± 100

— the CheMixHub viscosity set
